Data: publication PMC8941652 (European journal of medicinal chemistry, 2022)
In brackets after ≈: the same amount, converted by molar mass.

Assays:
[1] = test system: Extensively drug resistant Mtb strains; assay: microbe, parasite or virus in culture; assay type: cell-based; conditions: for MIC: Mycobacterium tuberculosis
[2] = test system: PAS resistant Mtb: FolC mutants; assay type: cell-based, Mycobacterium tuberculosis
[3] = test system: Multidrug resistant Mtb strains; assay: microbe, parasite or virus in culture; assay type: cell-based; conditions: Mycobacterium tuberculosis

Nc1cc(O)c(C(=O)O)cc1F [Compound 11, 4-Amino-5-fluoro-2-hydroxybenzoic acid]
activity against XDR and PAS resistant strains ([1]; most XDR and PAS resistant strains): largely inactive | MIC [2]: ≥50 µM | MIC [3]: 6.3 to 50 µM (≈ 1.08 to 8.56 µg/mL)

NNC(=O)c1ccncc1 [Isoniazid]
MIC [1]: 6.3 to 50 µM (≈ 0.864 to 6.86 µg/mL) | MIC [2]: 0.3 to 0.4 µM | MIC [3]: 0.4 to 19 µM (≈ 0.0549 to 2.61 µg/mL)

CC(=O)NC[C@H]1CN(c2ccc(N3CCOCC3)c(F)c2)C(=O)O1 [Linezolid]
MIC [1]: 0.9 to 50 µM (≈ 0.304 to 16.9 µg/mL) | MIC [3]: 0.8 to 1.4 µM (≈ 0.27 to 0.472 µg/mL)

Nc1ccc(C(=O)O)c(O)c1 [PAS, para-Aminosalicylic acid]
MIC [2]: 12.5 to 50 µM | MIC [3]: 0.2 to 3.1 µM (≈ 0.0306 to 0.475 µg/mL)
